From patent publication US20230149282A1, “High-Potency Vitamin C Chemical Peeling Solutions” (Baek Clinical Inc., priority 2020, published 2023)
Each block holds one compound with its values, some of them ahead of it.

Key:
[1] = Solubility of optional additional components in polyol solvents; assay type: physicochemical
Text: Additional ingredients were chosen for their compatibility with (e.g., miscibility in) 1,3 propanediol, 1,2 propanediol, and/or 1,3 butanediol.

[2] = use of 4% HQ or 5% Vitamin C; cited from earlier work
[3] = cream containing 10% MAP; cited from earlier work
[4] = concentrations of 0.2%; cited from earlier work
[5] = Solubilization of ascorbic acid with urea as co-solvent (recrystallization); assay type: physicochemical; conditions: in 1,3 propanediol
Text: Maximum saturation level experiments
Next, concentrations of ascorbic acid beyond the aforementioned maximum concentration are solubilized, using urea as a co-solvent.

[6] = Comparative studies: solubilization of prior-art ascorbic acid compositions; assay type: physicochemical; conditions: ascorbic acid together with urea in propylene glycol, butylene glycol and propanediol
Procedure: This example was reproduced.
All mixtures were heated to 85° C.

Compound: Oc1ccc(O)cc1 [HQ, hydroquinone]
- improvement [2]: 93%
- side-effects [2]: 68.7%

Compound: O=C1O[C@H]([C@@H](O)CO)C([O-])=C1OP(=O)([O-])[O-].O=C1O[C@H]([C@@H](O)CO)C([O-])=C1OP(=O)([O-])[O-].[Mg+2].[Mg+2].[Mg+2] [MAP, magnesium ascorbyl phosphate]
- brightening/lightening of the appearance of the skin [3]: effectively brighten/lighten the appearance of the skin

Compound: COc1cc(CC(C(C)=O)C(C)=O)ccc1O [Acetyl zingerone]
- solubility ([1]; at 0.5-1% in 1,3 propanediol, 1,2 propanediol and 1,3 butanediol): readily soluble

Compound: O=C1O[C@H]([C@@H](O)CO)C(O)=C1O [AA, L-ascorbic acid]
- improvement [2]: 62.5%

Compound: O=C(O)CCCCCCCC(=O)O [AzA, Azelaic acid]
- concentration of AzA that can be solubilized ([1]; in 1,3 propanediol): up to 10%
- effect of hydroxyethyl urea on solubility of AzA ([1]; in 1,3 propanediol): slightly increased
- AzA solubilized together with ascorbic acid and urea ([1]; with 10% Ascorbic Acid (AA), 5% Urea in 1,3 propanediol solvent base): 7.5%

Now from value to compound, other results behind:

- solubility ([1]; in 1,3-propanediol): shows solubility
Compound: CC1(C)[C@@H](O[C@H]2O[C@H](C(=O)O)[C@@H](O)[C@H](O)[C@H]2O[C@@H]2O[C@H](C(=O)O)[C@@H](O)[C@H](O)[C@H]2O)CC[C@]2(C)[C@H]3C(=O)C=C4[C@@H]5C[C@@](C)(C(=O)O)CC[C@]5(C)CC[C@@]4(C)[C@]3(C)CC[C@@H]12 [glycyrrhizic acid, Glycyrrhizic acid]

- solubility ([1]; at 0.2% in 1,3 propanediol, 1,2 propanediol and 1,3 butanediol): soluble
Compound: Madecassoside
- reduction of erythema (skin redness) [4]: desirable ability to reduce erythema

- minimum amount U required to solubilize 20% AA [5]: ~10%
- solubility of U (saturation reached before recrystallization of U) [5]: ~ 27.8%
- maximum concentrations soluble before urea itself starts to precipitate [6]: 20%
Compound: NC(N)=O [U, urea]
